# Data taken from patent publication US7772226B2, “Condensed imidazole derivatives” (Eisai R&D Management Co., Ltd., priority 2002, dated 2010).
# Legend:
# [1] = system: male C57BL/6N mice; experiment: Acceptable Timing of Administration in In Vivo Test; conditions: oral; given simultaneously with vs one hour before glucose loading (2 g/kg); improvement factor for glucose tolerance compared
# Protocol: Acceptable Timing of Administration in In Vivo Test
# The respective tests described below were carried out in combination with the in vivo test (administration before 0.5 hour) as described in Assay Example 2:
# 1. A test compound is administered simultaneously with glucose loading (2 g/kg) (the test compound is suspended in an aqueous solution of 0.5% methyl cellulose; the solution is combined with an equal volume of a glucose solution; and the mixture is administered orally at a dose of 10 ml/kg);
# 2. A test compound is administered one hour before glucose loading (2 g/kg) (the test compound suspended in an aqueous solution of 0.5% methyl cellulose is administered orally one hour before the oral administration of the glucose solution; each is given orally at a dose of 10 ml/kg).
# The improvement factor for glucose tolerance is estimated in each test.
# [2] = system: male Wistar rats; experiment: Effect of a Test Compound on the Blood Glucose Level of Fasted Male Wistar Rats; type: in vivo; conditions: oral dose of 10-30 (mg/kg), 0.5, 1 and 3 hours after administration, compared with control group treated with the medium alone
# Protocol: Purpose: Effect of a Test Compound on the Blood Glucose Level of Fasted Male Wistar Rats
# Animal: male Wistar rats (purchased from Charles River Japan, Inc.)
# A test compound was suspended in 0.5% methyl cellulose (MC) solution and administered orally at a dose of 5 mL/kg. The control group was treated with a 0.5% MC solution. The solution was administered orally at a dose of 5 mL/kg.
# Immediately before administering a test compound or 0.5% MC solution, and 0.5, 1, and 3 hours after the administration, without anesthetic the caudal vein was lightly cut with a razor blade to let the blood out. 10 μL of blood was collected and combined with 140 μL of 0.6 M perchloric acid solution. The sample was centrifuged at 3000 g at 4° C. for 10 minutes and the resultant supernatant was assayed with the Glucose CII TEST WAKO (Wako Pure Chemical Industries).
# [3] = target: T1, Porcine kidney-derived DPP-IV (Sus scrofa, UniProt P22411); experiment: DPPIV-inhibiting Activity Assay; type: biochemical; conditions: substrate Gly-Pro-p-nitroanilide 0.33 mM, absorbance at 405 nm
# T1 construct: Porcine kidney-derived DPP-IV was dissolved in a reaction buffer; from tissue; host or cells: porcine kidney
# T1 sequence (P22411 whole entry): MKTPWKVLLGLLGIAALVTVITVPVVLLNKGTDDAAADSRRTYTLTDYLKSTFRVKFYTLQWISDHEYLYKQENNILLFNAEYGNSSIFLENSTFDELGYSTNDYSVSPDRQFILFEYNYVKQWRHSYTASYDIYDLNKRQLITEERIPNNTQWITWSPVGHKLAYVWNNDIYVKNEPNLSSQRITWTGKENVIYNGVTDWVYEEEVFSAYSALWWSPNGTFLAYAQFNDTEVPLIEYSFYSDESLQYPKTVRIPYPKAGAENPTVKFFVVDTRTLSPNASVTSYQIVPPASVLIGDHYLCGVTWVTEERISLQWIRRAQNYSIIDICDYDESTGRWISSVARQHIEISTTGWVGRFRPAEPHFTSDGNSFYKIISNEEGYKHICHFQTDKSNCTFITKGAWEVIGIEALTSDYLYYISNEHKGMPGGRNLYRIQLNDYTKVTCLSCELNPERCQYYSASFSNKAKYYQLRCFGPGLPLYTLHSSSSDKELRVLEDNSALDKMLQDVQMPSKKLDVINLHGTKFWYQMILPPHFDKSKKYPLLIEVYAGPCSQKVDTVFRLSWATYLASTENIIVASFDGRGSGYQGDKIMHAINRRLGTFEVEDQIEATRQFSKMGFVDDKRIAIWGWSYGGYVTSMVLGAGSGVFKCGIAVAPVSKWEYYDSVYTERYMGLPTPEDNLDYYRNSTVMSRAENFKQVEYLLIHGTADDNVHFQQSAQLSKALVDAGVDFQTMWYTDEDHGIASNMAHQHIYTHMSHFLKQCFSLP
# Protocol: DPPIV-inhibiting Activity Assay
# Porcine kidney-derived DPP-IV was dissolved in a reaction buffer (50 mM Tris-HCl (pH 7.4)/0.1% BSA) at a concentration of […]. After 110 μl of this solution had been combined with 15 μl of an agent, the mixture was incubated at room temperature for 20 minutes. 25 μl of 2 mM Gly-Pro-p-nitroanilide was added (to a final concentration of 0.33 mM) to the solution to initiate the enzyme reaction. The reaction time was 20 minutes. 25 μl of 1N phosphoric acid solution was added to the reaction solution to quench the reaction.
Compound,range of acceptable timing of administration [1],change in the blood glucose level [2],IC50 [3]
"CC#CCn1c(N2CCNCC2)nc2nc(C#N)n(C)c(=O)c21.O=C(O)C(F)(F)F [Example 82, 7-(2-Butynyl)-2-cyano-1-methyl-8-(piperazin-1-yl)-1,7-dihydropurin-6-one trifluoroacetate]",sufficiently wide ranges of acceptable timing of administration,no significant change,–
"CC#CCn1c(N2CCNCC2)nc2cnn(C)c(=O)c21 [Example 119, 3-(2-Butynyl)-5-methyl-2-(piperazin-1-yl)-3,5-dihydroimidazo[4,5-d]pyridazin-4-one]",sufficiently wide ranges of acceptable timing of administration,no significant change,–
"CC#CCn1c(N2CCCC(N)C2)nc2cnn(C)c(=O)c21.O=C(O)C(F)(F)F (stereo not shown) [Example 120, 2-(3-Aminopiperidin-1-yl)-3-(2-butynyl)-5-methyl-3,5-dihydroimidazo[4,5-d]pyridazin-4-one trifluoroacetate]",sufficiently wide ranges of acceptable timing of administration,no significant change,–
"CC#CCn1c(N2CCNCC2)nc2nc(Oc3ccccc3C(N)=O)n(C)c(=O)c21 [Example 122, 2-[7-(2-Butynyl)-1-methyl-6-oxo-8-(piperazin-1-yl)-6,7-dihydro-1H-purin-2-yloxy]benzamide]",sufficiently wide ranges of acceptable timing of administration,no significant change,–
"CC#CCn1c(N2CCNCC2)nc2nc(C#N)n(Cc3ccccc3C#N)c(=O)c21.Cl [Example 229, 7-(2-Butynyl)-1-(2-cyanobenzyl)-6-oxo-8-(piperazin-1-yl)-6,7-dihydro-1H-purine-2-carbonitrile hydrochloride]",sufficiently wide ranges of acceptable timing of administration,no significant change,–
"CC#CCn1c(N2CCNCC2)nc2cnn(Cc3ccccc3C#N)c(=O)c21.O=C(O)C(F)(F)F [Example 267, 2-[3-(2-Butynyl)-4-oxo-2-(piperazin-1-yl)-3,4-dihydroimidazo[4,5-d]pyridazin-5-ylmethyl]benzonitrile trifluoroacetate]",sufficiently wide ranges of acceptable timing of administration,no significant change,–
"Methyl 2-[7-(2-butynyl)-1-methyl-6-oxo-8-(piperazin-1-yl)-6,7-dihydro-1H-purin-2-yloxy]phenylacetate trifluoroacetate [Example 4]",–,–,211 nM
